pIC50: −log10 of the molar value. Counter-ions that a name gives are not always drawn.
Legend:
NaV1.6 [1] = target: T1, NaV1.6 (Homo sapiens (Human), UniProt Q9UQD0); assay: Sodium Influx Assay (Flux), NaV1.6; settings: read-out: Flux NaV1.6 IC50; Trex HEK293 cells, ANG2 dye; arithmetic mean
NaV1.1 [2] = target: T2, NaV1.1 (Homo sapiens (Human), UniProt P35498); assay: Sodium Influx Assay (Flux), NaV1.1; type: cell-based; settings: Trex HEK293 cells, ANG2 dye; arithmetic mean
NaV1.5 = NaV1.5 (Homo sapiens (Human), UniProt Q14524); assay: Sodium Influx Assay (Flux), NaV1.5; settings: read-out: Flux NaV1.5 IC50; Trex HEK293 cells, ANG2 dye; arithmetic mean
NaV1.6 [3] = target: T1, NaV1.6; assay: Electrophysiological Assay (EP), patch voltage clamp, NaV1.6; type: cell-based; settings: HEK-293 cells, whole-cell patch clamp, inactivated state; arithmetic mean
Text: Patch voltage clamp electrophysiology allows for the direct measurement and quantification of block of voltage-gated sodium channels (Nay's), and allows the determination of the time-and voltage-dependence of block which has been interpreted as differential binding to the resting, open, and inactivated states of the sodium channel (Hille, B., Journal of General Physiology (1977), 69: 497-515).
NaV1.1, NaV1.5 and NaV1.6 cDNAs (NM_001165964 (SCN1A), NM_000335 (SCN5A) and NM_014191 (SCN8A), respectively) were stably expressed in HEK-293 cells.
(§1) Sodium currents were measured using the patch clamp technique in the whole-cell configuration using either a PatchXpress automated voltage clamp or manually using an Axopatch 200B (Axon Instruments) or Model 2400 (A-M systems) amplifier.
The manual voltage clamp protocol was as follows: Borosilicate glass micropipettes were fire-polished to a tip diameter yielding a resistance of 2-4 Mohms in the working solutions. […] In some studies, the external sodium was reduced by equimolar replacement with choline. Osmolarity in the CsF internal and NaCl external solutions was adjusted to 300 mOsm/kg and 310 mOsm/kg with glucose, respectively. All recordings were performed at ambient temperature in a bath chamber with a volume of 150 μL. Control sodium currents were measured in 0.5% DMSO. Controls and representative compounds of the invention were applied to the recording chamber through a 4-pinch or 8-pinch valve bath perfusion system manufactured by ALA Scientific Instruments.
Currents were recorded at 40 kHz sampling frequency, filtered at […], and stored using a Digidata-1322A analogue/digital interface with the pClamp software (Axon Instruments). Series resistance compensation was applied (60-80%). […] All statistics in this study are given as mean±SD.
The membrane potential was maintained at a voltage where inactivation of the channel is complete. The voltage is then stepped back to a very negative (Vhold=−150 mV) voltage for 20 ms and then a test pulse is applied to quantify the compound block. The 20 ms brief repolarization was long enough for compound-free channels to completely recover from fast inactivation, but the compound-bound channels recovered more slowly such that negligible recovery could occur during this interval. The percent decrease in sodium current following wash-on of compound was taken as the percent block of sodium channels.

NaV1.1 [4] = target: T2, NaV1.1; assay: Electrophysiological Assay (EP), patch voltage clamp, NaV1.1; type: cell-based; settings: HEK-293 cells, whole-cell patch clamp, inactivated state; arithmetic mean
Protocol: as §1
In some studies, the external sodium was reduced by equimolar replacement with choline. […] All recordings were performed at ambient temperature in a bath chamber with a volume of 150 μL. Control sodium currents were measured in 0.5% DMSO. Controls and representative compounds of the invention were applied to the recording chamber through a 4-pinch or 8-pinch valve bath perfusion system manufactured by ALA Scientific Instruments.
Series resistance compensation was applied (60-80%). […] All statistics in this study are given as mean±SD.
The membrane potential was maintained at a voltage where inactivation of the channel is complete. The voltage is then stepped back to a very negative (Vhold=−150 mV) voltage for 20 ms and then a test pulse is applied to quantify the compound block. […] The percent decrease in sodium current following wash-on of compound was taken as the percent block of sodium channels.

Sequence of NaV1.5 (Q14524 other isoform, or with tags, fused parts or gaps): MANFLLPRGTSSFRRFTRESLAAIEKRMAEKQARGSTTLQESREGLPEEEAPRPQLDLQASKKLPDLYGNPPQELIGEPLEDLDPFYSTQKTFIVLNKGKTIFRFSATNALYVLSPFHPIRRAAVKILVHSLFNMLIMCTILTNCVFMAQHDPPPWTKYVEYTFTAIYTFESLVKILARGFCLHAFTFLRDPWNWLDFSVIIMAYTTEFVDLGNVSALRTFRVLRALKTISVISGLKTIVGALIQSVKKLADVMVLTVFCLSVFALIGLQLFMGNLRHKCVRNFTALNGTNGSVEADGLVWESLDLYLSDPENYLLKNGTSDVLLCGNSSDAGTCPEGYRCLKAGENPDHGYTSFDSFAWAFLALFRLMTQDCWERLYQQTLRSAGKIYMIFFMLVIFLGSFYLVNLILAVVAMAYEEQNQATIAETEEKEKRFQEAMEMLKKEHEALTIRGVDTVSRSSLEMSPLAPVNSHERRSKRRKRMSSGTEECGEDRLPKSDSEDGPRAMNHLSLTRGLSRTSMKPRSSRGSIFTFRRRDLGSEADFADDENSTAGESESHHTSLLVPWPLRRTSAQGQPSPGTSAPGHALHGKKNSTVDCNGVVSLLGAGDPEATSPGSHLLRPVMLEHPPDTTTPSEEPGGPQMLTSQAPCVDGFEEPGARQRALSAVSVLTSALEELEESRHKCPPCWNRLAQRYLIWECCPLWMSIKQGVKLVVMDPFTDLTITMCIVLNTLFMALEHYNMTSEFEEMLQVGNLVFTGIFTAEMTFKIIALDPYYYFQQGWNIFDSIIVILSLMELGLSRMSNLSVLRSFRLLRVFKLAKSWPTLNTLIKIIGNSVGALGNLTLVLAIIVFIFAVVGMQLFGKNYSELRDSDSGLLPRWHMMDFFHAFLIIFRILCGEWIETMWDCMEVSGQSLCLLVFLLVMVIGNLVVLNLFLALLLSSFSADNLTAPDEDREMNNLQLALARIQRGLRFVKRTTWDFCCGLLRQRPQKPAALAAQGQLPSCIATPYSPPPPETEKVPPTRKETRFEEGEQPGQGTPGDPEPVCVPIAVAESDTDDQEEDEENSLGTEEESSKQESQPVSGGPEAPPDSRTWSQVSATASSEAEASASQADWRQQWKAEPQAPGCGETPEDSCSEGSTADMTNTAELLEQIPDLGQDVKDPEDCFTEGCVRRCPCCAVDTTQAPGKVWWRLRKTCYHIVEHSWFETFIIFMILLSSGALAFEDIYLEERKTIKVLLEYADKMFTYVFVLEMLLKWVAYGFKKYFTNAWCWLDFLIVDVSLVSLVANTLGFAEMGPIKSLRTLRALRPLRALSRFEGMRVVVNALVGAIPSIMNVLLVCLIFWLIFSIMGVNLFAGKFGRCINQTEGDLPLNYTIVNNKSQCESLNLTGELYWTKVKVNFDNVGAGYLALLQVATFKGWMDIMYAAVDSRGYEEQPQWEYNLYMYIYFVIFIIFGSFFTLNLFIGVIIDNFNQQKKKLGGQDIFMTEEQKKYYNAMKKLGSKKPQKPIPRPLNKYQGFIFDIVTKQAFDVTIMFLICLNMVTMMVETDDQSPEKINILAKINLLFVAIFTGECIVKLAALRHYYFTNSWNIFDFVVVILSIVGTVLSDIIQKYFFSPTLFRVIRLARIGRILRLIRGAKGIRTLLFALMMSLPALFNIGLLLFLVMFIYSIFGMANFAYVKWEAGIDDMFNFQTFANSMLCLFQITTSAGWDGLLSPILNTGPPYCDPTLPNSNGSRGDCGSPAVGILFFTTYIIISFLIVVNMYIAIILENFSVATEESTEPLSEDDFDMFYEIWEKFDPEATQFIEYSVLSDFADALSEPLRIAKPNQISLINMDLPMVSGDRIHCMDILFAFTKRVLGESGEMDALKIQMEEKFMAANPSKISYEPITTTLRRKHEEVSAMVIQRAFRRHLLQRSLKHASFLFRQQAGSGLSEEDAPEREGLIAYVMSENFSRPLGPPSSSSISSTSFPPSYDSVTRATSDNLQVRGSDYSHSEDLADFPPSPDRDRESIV
T1 sequence (Q9UQD0 whole entry): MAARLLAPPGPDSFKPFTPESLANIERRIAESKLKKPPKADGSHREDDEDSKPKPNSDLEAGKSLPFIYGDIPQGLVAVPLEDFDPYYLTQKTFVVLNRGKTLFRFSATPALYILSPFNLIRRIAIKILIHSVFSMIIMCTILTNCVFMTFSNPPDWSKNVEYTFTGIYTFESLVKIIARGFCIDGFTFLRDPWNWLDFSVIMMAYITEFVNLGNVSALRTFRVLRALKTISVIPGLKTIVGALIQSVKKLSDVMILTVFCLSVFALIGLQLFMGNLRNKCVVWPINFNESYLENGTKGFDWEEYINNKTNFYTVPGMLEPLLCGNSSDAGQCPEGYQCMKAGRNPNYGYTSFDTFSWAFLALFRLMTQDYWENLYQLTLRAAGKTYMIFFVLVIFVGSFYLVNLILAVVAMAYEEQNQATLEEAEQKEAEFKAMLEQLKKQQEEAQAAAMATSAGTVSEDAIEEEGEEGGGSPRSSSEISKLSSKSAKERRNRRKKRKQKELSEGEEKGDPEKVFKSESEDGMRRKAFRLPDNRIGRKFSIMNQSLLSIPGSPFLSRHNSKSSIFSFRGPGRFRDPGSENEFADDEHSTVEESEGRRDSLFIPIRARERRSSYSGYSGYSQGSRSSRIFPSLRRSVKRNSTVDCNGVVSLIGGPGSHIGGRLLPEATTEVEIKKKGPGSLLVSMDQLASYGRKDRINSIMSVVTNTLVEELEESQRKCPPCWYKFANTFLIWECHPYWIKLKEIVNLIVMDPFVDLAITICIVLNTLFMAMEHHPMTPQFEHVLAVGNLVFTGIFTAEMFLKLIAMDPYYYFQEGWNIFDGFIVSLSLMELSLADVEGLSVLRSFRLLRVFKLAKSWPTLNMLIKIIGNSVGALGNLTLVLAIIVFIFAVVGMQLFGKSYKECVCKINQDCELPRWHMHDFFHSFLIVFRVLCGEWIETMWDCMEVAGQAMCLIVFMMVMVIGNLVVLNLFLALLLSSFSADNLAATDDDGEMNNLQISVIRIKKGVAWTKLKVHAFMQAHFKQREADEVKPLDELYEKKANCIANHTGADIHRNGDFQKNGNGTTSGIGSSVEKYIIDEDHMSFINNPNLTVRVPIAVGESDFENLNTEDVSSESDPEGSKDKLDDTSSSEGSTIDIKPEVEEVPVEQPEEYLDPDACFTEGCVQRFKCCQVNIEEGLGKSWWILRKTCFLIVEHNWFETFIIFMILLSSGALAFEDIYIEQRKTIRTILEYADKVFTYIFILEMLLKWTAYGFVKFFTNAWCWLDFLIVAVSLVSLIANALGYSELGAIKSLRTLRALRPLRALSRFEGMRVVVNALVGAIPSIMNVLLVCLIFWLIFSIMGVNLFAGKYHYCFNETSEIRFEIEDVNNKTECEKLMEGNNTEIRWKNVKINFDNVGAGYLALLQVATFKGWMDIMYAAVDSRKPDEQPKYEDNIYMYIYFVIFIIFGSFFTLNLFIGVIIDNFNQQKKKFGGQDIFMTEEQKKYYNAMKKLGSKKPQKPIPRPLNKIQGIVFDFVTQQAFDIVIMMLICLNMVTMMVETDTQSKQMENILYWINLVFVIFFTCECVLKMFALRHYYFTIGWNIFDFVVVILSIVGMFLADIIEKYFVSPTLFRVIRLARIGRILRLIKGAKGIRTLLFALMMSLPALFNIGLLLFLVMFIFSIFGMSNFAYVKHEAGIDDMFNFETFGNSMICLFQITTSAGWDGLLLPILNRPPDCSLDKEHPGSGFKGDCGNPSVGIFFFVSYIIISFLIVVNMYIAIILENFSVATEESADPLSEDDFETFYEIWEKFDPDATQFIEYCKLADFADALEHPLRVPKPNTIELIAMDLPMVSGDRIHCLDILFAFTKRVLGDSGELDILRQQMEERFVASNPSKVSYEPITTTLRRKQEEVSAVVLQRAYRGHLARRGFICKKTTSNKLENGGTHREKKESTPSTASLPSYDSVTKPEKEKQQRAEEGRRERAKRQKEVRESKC

pIC50 (NaV1.6 [1])	pIC50 (NaV1.1 [2])	pIC50 (NaV1.6 [3])	pIC50 (NaV1.1 [4])	Structure (SMILES)	pIC50 (NaV1.5)
6.42	5.80	7.41	5.90	Cc1cccc(CN2CC[C@@H](Nc3cc(F)c(S(=O)(=O)Nc4nccs4)cc3Cl)C2)c1 [Example 88, (R)-5-chloro-2-fluoro-4-(1-(3-methylbenzyl)pyrrolidin-3-ylamino)-N-(thiazol-2-yl)benzenesulfonamide]	5.23
6.13	5.22	6.41	5.14	O=S(=O)(Nc1nccs1)c1cc(Cl)c(N[C@H]2CCN(Cc3ccccc3)C2)cc1F [Example 87, (S)-4-(1-benzylpyrrolidin-3-ylamino)-5-chloro-2-fluoro-N-(thiazol-2-yl)benzenesulfonamide]	4.85
7.00	4.97	7.05	< 5.00	C[C@H](c1ccccc1)N1CC[C@H](N(C)c2ccc(S(=O)(=O)Nc3nccs3)cc2Cl)C1 [Example 44, 3-chloro-4-(methyl((S)-1-((R)-1-phenylethyl)pyrrolidin-3-yl)amino)-N-(thiazol-2-yl)benzenesulfonamide]	< 4.52
6.36	5.43	7.15	5.47	CN(c1ccc(S(=O)(=O)Nc2nccs2)cc1Cl)[C@H]1CCN(Cc2cccc(Cl)c2)C1 [Example 27, (S)-3-chloro-4-((1-(3-chlorobenzyl)pyrrolidin-3-yl)(methyl)amino)-N-(thiazol-2-yl)benzenesulfonamide]	5.16
6.12	5.57	6.31	5.32	CN(c1ccc(S(=O)(=O)Nc2cscn2)cc1Cl)[C@H]1CCN(Cc2cccc(C(F)F)c2)C1 [Example 253, (S)-3-chloro-4-((1-(3-(difluoromethyl)benzyl)pyrrolidin-3-yl)(methyl)amino)-N-(thiazol-4-yl)benzenesulfonamide formate]	5.60
5.49	5.17	5.41	< 5.00	CN(c1cc(F)c(S(=O)(=O)Nc2cccc(F)n2)cc1Cl)[C@H]1CCN(Cc2ccccc2)C1 [Example 40, (S)-4-((1-benzylpyrrolidin-3-yl)(methyl)amino)-5-chloro-2-fluoro-N-(6-fluoropyridin-2-yl)benzenesulfonamide bis(trifluoroacetic acid) salt]	4.80
6.30	5.67	7.04	5.54	O=S(=O)(Nc1nccs1)c1cc(Cl)c(N[C@@H]2CCN(Cc3ccccc3)C2)cc1F [Example 89, (R)-4-(1-benzylpyrrolidin-3-ylamino)-5-chloro-2-fluoro-N-(thiazol-2-yl)benzenesulfonamide]	4.92
5.97	< 4.52	6.01	< 5.00	C[C@H](c1ccccc1)N1CCC(Oc2ccc(S(=O)(=O)Nc3ccncn3)cc2Cl)CC1 [Example 300, (R)-3-chloro-4-((1-(1-phenylethyl)piperidin-4-yl)oxy)-N-(pyrimidin-4-yl)benzenesulfonamide]	< 4.52
8.30	4.76	8.30	–	Cc1c(OC2CCN([C@H](C)c3ccccc3)CC2)cc(F)c(S(=O)(=O)Nc2cscn2)c1F [Example 282, (R)-2,6-difluoro-3-methyl-4-((1-(1-phenylethyl)piperidin-4-yl)oxy)-N-(thiazol-4-yl)benzenesulfonamide 2,2,2-trifluoroacetate]	4.62
5.12	4.72	5.25	–	O=S(=O)(Nc1cccc(F)n1)c1ccc(OC2CCN(Cc3ccccc3)CC2)c(Cl)c1 [Example 77, 4-((1-benzylpiperidin-4-yl)oxy)-3-chloro-N-(6-fluoropyridin-2-yl)benzenesulfonamide 2,2,2-trifluoroacetate]	4.58
6.74	< 4.52	7.18	–	Cc1cccc(CN2CC[C@H](N(C)c3cc(F)c(S(=O)(=O)Nc4cscn4)c(F)c3Cl)C2)n1 [Example 267, (S)-3-chloro-2,6-difluoro-4-(methyl(1-((6-methylpyridin-2-yl)methyl)pyrrolidin-3-yl)amino)-N-(thiazol-4-yl)benzenesulfonamide]	< 4.52

Structure (SMILES)	pIC50 (NaV1.6 [1])	pIC50 (NaV1.1 [2])	pIC50 (NaV1.6 [3])	pIC50 (NaV1.1 [4])	pIC50 (NaV1.5)
Cc1c(N(C)[C@H]2CCN(Cc3ccccc3)C2)cc(F)c(S(=O)(=O)Nc2ccsn2)c1F [Example 279, (S)-4-((1-benzylpyrrolidin-3-yl)(methyl)amino)-2,6-difluoro-N-(isothiazol-3-yl)-3-methylbenzenesulfonamide 2,2,2-trifluoroacetate]	7.19	4.67	7.96	< 5.00	< 4.52
C[C@H](c1ccccc1)N1CCC(Oc2cc(F)c(S(=O)(=O)Nc3cscn3)c(F)c2Cl)CC1 [Example 283, (R)-3-chloro-2,6-difluoro-4-((1-(1-phenylethyl)piperidin-4-yl)oxy)-N-(thiazol-4-yl)benzenesulfonamide 2,2,2-trifluoroacetate formate]	7.17	< 4.52	7.43	< 5.00	< 4.52
C[C@@]1(Nc2ccc(S(=O)(=O)Nc3cscn3)cc2Cl)CCN(Cc2ccccc2)C1 [Example 225, (R)-4-((1-benzyl-3-methylpyrrolidin-3-yl)amino)-3-chloro-N-(thiazol-4-yl)benzenesulfonamide formate]	5.41	5.26	5.27	< 5.00	5.26
C[C@@H](c1ccccc1)N1CCC(Oc2ccc(S(=O)(=O)Nc3ncns3)cc2Cl)CC1 [Example 221, (S)-3-chloro-4-((1-(1-phenylethyl)piperidin-4-yl)oxy)-N-(1,2,4-thiadiazol-5-yl)benzenesulfonamide 2,2,2-trifluoroacetate]	6.90	4.97	7.01	< 5.00	< 4.52
C[C@H](c1ccccc1)N1CC[C@H](N(C)c2ccc(S(=O)(=O)Nc3cscn3)cc2Cl)C1 [Example 251, 3-chloro-4-(methyl((S)-1-((R)-1-phenylethyl)pyrrolidin-3-yl)amino)-N-(thiazol-4-yl)benzenesulfonamide 2,2,2-trifluoroacetate]	5.82	5.13	6.39	< 5.00	5.14
CN(c1cc(F)c(S(=O)(=O)Nc2cscn2)cc1Cl)[C@H]1CCN(C2(c3ccccc3)CC2)C1 [Example 259, (S)-5-chloro-2-fluoro-4-(methyl(1-(1-phenylcyclopropyl)pyrrolidin-3-yl)amino)-N-(thiazol-4-yl)benzenesulfonamide 2,2,2-trifluoroacetate]	5.80	5.42	6.36	5.45	5.24
CC1(Nc2ccc(S(=O)(=O)Nc3nccs3)cc2Cl)CCN(Cc2ccccc2)C1 (stereo not shown) [Example 61, 4-((1-benzyl-3-methylpyrrolidin-3-yl)amino)-3-chloro-N-(thiazol-2-yl)benzenesulfonamide]	6.75	5.20	6.86	< 5.00	5.16
C[C@H](c1ccccc1)N1CCC(Oc2cc(F)c(S(=O)(=O)Nc3cscn3)c(F)c2)CC1 [Example 291, (R)-2,6-difluoro-4-((1-(1-phenylethyl)piperidin-4-yl)oxy)-N-(thiazol-4-yl)benzenesulfonamide 2,2,2-trifluoroacetate]	6.24	< 4.52	6.35	–	< 4.52
